pEC50, pIC50: −log10 of the molar value. Where two headings read alike, the source gives them in different places.
How the values were obtained:
[1] = tested on: influenza A virus (A/PR/8/34); assay: microbe, parasite or virus in culture; format: cell-based; details: read-out: IC50
[2] = tested on: A/PR/8/34 influenza virus; assay: microbe, parasite or virus in culture; format: cell-based; details: mean all, A/PR/8/34 influenza virus in MDCK cells, bDNA assay, read-out: EC50
[3] = Influenza A virus, PR/8, MDCK, mean all, A/PR/8/34 infected MDCK cells, CPE assay
[4] = mean all, A/PR/8/34 infected MDCK cells, CPE assay

In the case of `CS(=O)(=O)N1CC[C@H](Nc2nc(-c3c[nH]c4ncc(Cl)cc34)ncc2F)C1` [Compound 398, (S)-2-(5-chloro-1H-pyrrolo[2,3-b]pyridin-3-yl)-5-fluoro-N-(1-(methylsulfonyl)pyrrolidin-3-yl)pyrimidin-4-amine], the pIC50 [1, 3] was > 5.30 and the pEC50 ([2]; Influenza A virus, PR/8, MDCK) was > 5.30.

`COC1CCCCC1Nc1nc(-c2c[nH]c3ncc(Cl)cc23)ncc1F` (centres unmarked) [Compound 412, 2-(5-chloro-1H-pyrrolo[2,3-b]pyridin-3-yl)-5-fluoro-N-(2-methoxycyclohexyl)-pyrimidin-4-amine] was tested, and the pIC50 [1, 3] was > 5.30 and the pEC50 ([2]; Influenza A virus, PR/8, MDCK) was > 5.30.

For `NC1CCCCC1Nc1nc(-c2c[nH]c3ncc(Cl)cc23)ncc1F` (centres unmarked) [Compound 414], the pIC50 [1, 4] was > 5.30 and the pEC50 [2] was > 5.30.

`O=C1NCCC[C@@H]1Nc1nc(-c2c[nH]c3ncc(Cl)cc23)ncc1F` [Compound 416] was tested, and the pIC50 [1, 3] was > 5.30 and the pEC50 ([2]; Influenza A virus, PR/8, MDCK) was > 5.30.

In the case of `O=C1NCCCC[C@@H]1Nc1nc(-c2c[nH]c3ncc(Cl)cc23)ncc1F` [Compound 417], the pIC50 [1, 3] was > 5.30 and the pEC50 ([2]; Influenza A virus, PR/8, MDCK) was > 5.30.

With `CCCCS(=O)(=O)N1CCCC(Nc2ccnc(-c3c[nH]c4ncc(Cl)cc34)n2)C1` (centres unmarked) [Compound 419] the pIC50 [1, 4] was > 5.30 and the pEC50 [2] was > 5.30.

`COC(=O)N[C@H]1CCCC[C@@H]1Nc1nc(-c2c[nH]c3ncc(Cl)cc23)ncc1F` [Compound 425, Methyl N-[(1S,2S)-2-[[2-(5-chloro-1H-pyrrolo[2,3-b]pyridin-3-yl)-5-fluoro-pyrimidin-4-yl]amino]cyclohexyl]carbamate] was tested, and the pIC50 [1, 3] was > 5.30 and the pEC50 ([2]; Influenza A virus, PR/8, MDCK) was > 5.30.

For `CS(=O)(=O)N[C@H]1CCCC[C@@H]1Nc1nc(-c2c[nH]c3ncc(Cl)cc23)ncc1F` [Compound 428, N-[(1S,2S)-2-[[2-(5-chloro-1H-pyrrolo[2,3-b]pyridin-3-yl)-5-fluoro-pyrimidin-4-yl]amino]cyclohexyl]methanesulfonamide], the pIC50 ([1]; Influenza A virus, PR/8, MDCK, exemplary values in text, survival of A/PR/8/34 infected cells) was 7.52, the pIC50 [1, 3] was > 5.30 and the pEC50 ([2]; Influenza A virus, PR/8, MDCK) was > 5.30.

In the case of `CC(=O)N[C@H]1CCCC[C@@H]1Nc1nc(-c2c[nH]c3ncc(Cl)cc23)ncc1F` [Compound 433, N-[(1s, 2S)-2-[[2-(5-chloro-1H-pyrrolo[2,3-b]pyridin-3-yl)-5-fluoro-pyrimidin-4-yl]amino]cyclohexyl]acetamide], the pIC50 [1, 3] was > 5.30 and the pEC50 ([2]; Influenza A virus, PR/8, MDCK) was > 5.30.

For `CC(=O)N1CCC[C@H](Nc2nc(-c3c[nH]c4ncc(Cl)cc34)ncc2F)C1` [Compound 434], the pIC50 [1, 3] was > 5.30 and the pEC50 ([2]; Influenza A virus, PR/8, MDCK) was > 5.30.

In the case of `CCC(=O)N1CCC[C@H](Nc2nc(-c3c[nH]c4ncc(Cl)cc34)ncc2F)C1` [Compound 435], the pIC50 [1, 3] was > 5.30 and the pEC50 ([2]; Influenza A virus, PR/8, MDCK) was > 5.30.

`CCNC(=O)N1CCC[C@H](Nc2nc(-c3c[nH]c4ncc(Cl)cc34)ncc2F)C1` [Compound 438] was tested, and the pIC50 [1, 3] was > 5.30 and the pEC50 ([2]; Influenza A virus, PR/8, MDCK) was > 5.30.

`CC(C)NC(=O)N1CCC[C@H](Nc2nc(-c3c[nH]c4ncc(Cl)cc34)ncc2F)C1` [Compound 439] was tested, and the pIC50 [1, 3] was > 5.30 and the pEC50 ([2]; Influenza A virus, PR/8, MDCK) was > 5.30.

In the case of `COC(=O)N1CCC[C@H](Nc2nc(-c3c[nH]c4ncc(Cl)cc34)ncc2F)C1` [Compound 440], the pIC50 [1, 3] was > 5.30 and the pEC50 ([2]; Influenza A virus, PR/8, MDCK) was > 5.30.

`O=C(OC1CCOC1)N1CCC[C@H](Nc2nc(-c3c[nH]c4ncc(Cl)cc34)ncc2F)C1` (some centres unmarked) [Compound 443] was tested, and the pIC50 [1, 3] was > 5.30 and the pEC50 ([2]; Influenza A virus, PR/8, MDCK) was > 5.30.

`CC1(C(=O)N2CCC[C@H](Nc3nc(-c4c[nH]c5ncc(Cl)cc45)ncc3F)C2)COC1` [Compound 444] was tested, and the pIC50 [1, 3] was > 5.30 and the pEC50 ([2]; Influenza A virus, PR/8, MDCK) was > 5.30.

For `COC(=O)NC1CCCC(Nc2nc(-c3c[nH]c4ncc(Cl)cc34)ncc2F)C1` (centres unmarked) [Compound 453], the pIC50 [1, 4] was > 5.30 and the pEC50 [2] was > 5.30.

`CS(=O)(=O)NC1CCCC(Nc2nc(-c3c[nH]c4ncc(Cl)cc34)ncc2F)C1` (centres unmarked) [Compound 454, N-[3-[[2-(5-chloro-1H-pyrrolo[2,3-b]pyridin-3-yl)-5-fluoro-pyrimidin-4-yl]amino]cyclohexyl]methanesulfonamide] was tested, and the pIC50 [1, 3] was > 5.30 and the pEC50 ([2]; Influenza A virus, PR/8, MDCK) was > 5.30.

`CCN1CCC[C@H](Nc2nc(-c3c[nH]c4ncc(Cl)cc34)ncc2F)C1=O` [Compound 460] was tested, and the pIC50 [1, 3] was > 5.30 and the pEC50 ([2]; Influenza A virus, PR/8, MDCK) was > 5.30.

For `CN1CCCC[C@H](Nc2nc(-c3c[nH]c4ncc(Cl)cc34)ncc2F)C1=O` [Compound 461], the pIC50 [1, 3] was > 5.30 and the pEC50 ([2]; Influenza A virus, PR/8, MDCK) was > 5.30.
